# Laboratory results as given in PubChem BioAssay AID248 (DTP/NCI, 2004).
# “And” between values parts separate entries of the source, which are not always exact repeats. Equal entries are not always repeated. Toxic doses and inconclusive results are not listed.
# Tested on: L1210 leukemia ip in BDF1 mice, survival T/C
# Assay: NCI In Vivo Anticancer Drug Screen. Data for tumor model L1210 Leukemia (intraperitoneal) in B6D2F1 (BDF1) mice
# Conditions: endpoint: mean survival time, higher = longer survival
# How it was run: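 Survival endpoint. Drug-treated group vs vehicle group, expressed as T divided by C. Tumor passaged by transplantation.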
# [1] = dose: 100.0 mg/kg/injection, schedule: Q01DX009 (ip), vehicle: saline with Tween-80
# [2] = dose: 200.0 mg/kg/injection, schedule: Q01DX009 (ip), vehicle: saline with Tween-80
# [3] = dose: 400.0 mg/kg/injection, schedule: Q01DX009 (ip), vehicle: saline with Tween-80
# [4] = dose: 100.0 mg/kg/injection, schedule: Q01DX001 (ip), vehicle: saline
# [5] = dose: 200.0 mg/kg/injection, schedule: Q01DX001 (ip), vehicle: saline
# [6] = dose: 400.0 mg/kg/injection, schedule: Q01DX001 (ip), vehicle: saline
# [7] = dose: 25.0 mg/kg/injection, schedule: Q01DX009 (ip), vehicle: Klucel (hydroxypropylcellulose) (HPC)
# [8] = dose: 50.0 mg/kg/injection, schedule: Q01DX009 (ip), vehicle: Klucel (hydroxypropylcellulose) (HPC)
# [9] = dose: 100.0 mg/kg/injection, schedule: Q01DX009 (ip), vehicle: Klucel (hydroxypropylcellulose) (HPC)
# [10] = dose: 100.0 mg/kg/injection, schedule: Q04DX003 (ip), vehicle: Klucel (hydroxypropylcellulose) (HPC)
# [11] = dose: 200.0 mg/kg/injection, schedule: Q01DX009 (ip), vehicle: Klucel (hydroxypropylcellulose) (HPC)
# [12] = dose: 200.0 mg/kg/injection, schedule: Q04DX003 (ip), vehicle: Klucel (hydroxypropylcellulose) (HPC)
# [13] = dose: 400.0 mg/kg/injection, schedule: Q04DX003 (ip), vehicle: Klucel (hydroxypropylcellulose) (HPC)
# [14] = dose: 100.0 mg/kg/injection, schedule: Q04DX003 (ip), vehicle: saline
# [15] = dose: 200.0 mg/kg/injection, schedule: Q04DX003 (ip), vehicle: saline
# [16] = dose: 100.0 mg/kg/injection, schedule: Q04DX003 (ip), vehicle: saline with Tween-80
# [17] = dose: 200.0 mg/kg/injection, schedule: Q04DX003 (ip), vehicle: saline with Tween-80
# [18] = dose: 400.0 mg/kg/injection, schedule: Q04DX003 (ip), vehicle: saline with Tween-80
# [19] = dose: 100.0 mg/kg/injection, schedule: Q04DX002 (ip), vehicle: saline with Tween-80
# [20] = dose: 200.0 mg/kg/injection, schedule: Q04DX002 (ip), vehicle: saline with Tween-80
# [21] = dose: 400.0 mg/kg/injection, schedule: Q01DX009 (ip), vehicle: Klucel (hydroxypropylcellulose) (HPC)
structure (smiles),measurement,setting,value
OC12CC[N+](Cc3ccccc3)(CC1)CC2,T/C,"dose: 75.0 mg/kg/injection, schedule: Q01DX001 (ip), vehicle: saline",104 % of control
same,T/C,"dose: 150.0 mg/kg/injection, schedule: Q01DX001 (ip), vehicle: saline",100 % of control
Cc1cc(OC(=O)Nc2cccc(Cl)c2)ccc1Cl,T/C,[1],91 % of control
same,T/C,[2],93 % of control
same,T/C,[3],95 % of control
Nc1nc2ncc(CCNc3ccc(C(=O)NC(CCC(=O)O)C(=O)O)cc3)nc2c(=O)[nH]1 (stereo not drawn),T/C,"dose: 18.75 mg/kg/injection, schedule: Q01DX001 (ip), vehicle: other",96 % of control
same,T/C,"dose: 18.75 mg/kg/injection, schedule: Q01DX Z (ip), vehicle: other",103 % of control
same,T/C,"dose: 37.5 mg/kg/injection, schedule: Q01DX001 (ip), vehicle: other",97 % of control
same,T/C,"dose: 37.5 mg/kg/injection, schedule: Q01DX Z (ip), vehicle: other",102 % of control
same,T/C,"dose: 75.0 mg/kg/injection, schedule: Q01DX001 (ip), vehicle: other",104 % of control
same,T/C,"dose: 75.0 mg/kg/injection, schedule: Q01DX Z (ip), vehicle: other",112 % of control
same,T/C,"dose: 150.0 mg/kg/injection, schedule: Q01DX001 (ip), vehicle: other",119 % of control
CC(C)(C)CC(C)(C)N(CSc1ccc(Cl)cc1)CSc1ccc(Cl)cc1,T/C,[4],100 % of control
same,T/C,[5],93 % of control
same,T/C,[6],87 % of control
C/C(=N\[N+](C)(C)C)c1ccc2ccccc2c1,T/C,[7],101 % of control
same,T/C,"dose: 25.0 mg/kg/injection, schedule: Q04DX003 (ip), vehicle: Klucel (hydroxypropylcellulose) (HPC)",101 % of control
same,T/C,[8],100 % of control
same,T/C,"dose: 50.0 mg/kg/injection, schedule: Q04DX003 (ip), vehicle: Klucel (hydroxypropylcellulose) (HPC)",105 % of control
same,T/C,[9],90 % of control
same,T/C,[10],95 % of control and 105 % of control
Cc1cccc(C)c1NC(=S)N1CCC(CCCC2CCN(C(=S)Nc3c(C)cccc3C)CC2)CC1,T/C,[1],93 % of control and 98 % of control
same,T/C,[2],95 % of control and 105 % of control
same,T/C,[3],93 % of control and 98 % of control
O=C(/C=C/c1ccccc1)N/N=C/c1cccs1,T/C,[9],86 % of control
same,T/C,[11],88 % of control
CCn1c2ccccc2c2cc(NC(=O)N(CCCl)N=O)ccc21,T/C,"dose: 177.0 mg/kg/injection, schedule: Q01DX009 (ip), vehicle: carboxymethylcellulose (CMC)",121 % of control
same,T/C,"dose: 266.0 mg/kg/injection, schedule: Q01DX009 (ip), vehicle: carboxymethylcellulose (CMC)",188 % of control
CCCCCCCCCCCCCCCCC1(c2ccccc2)NC(=O)NC1=O (stereo not drawn),T/C,[10],93 % of control
same,T/C,[12],95 % of control
same,T/C,[13],98 % of control
Cc1cccc(NC(=S)Nc2ccccc2)c1C,T/C,"dose: 100.0 mg/kg/injection, schedule: Q04DX002 (ip), vehicle: Klucel (hydroxypropylcellulose) (HPC)",94 % of control
same,T/C,"dose: 200.0 mg/kg/injection, schedule: Q04DX002 (ip), vehicle: Klucel (hydroxypropylcellulose) (HPC)",105 % of control
same,T/C,"dose: 400.0 mg/kg/injection, schedule: Q04DX002 (ip), vehicle: Klucel (hydroxypropylcellulose) (HPC)",101 % of control
NC(=O)c1ccccc1OC(=O)Nc1cc([N+](=O)[O-])ccc1F,T/C,[7],104 % of control
same,T/C,[8],107 % of control
same,T/C,[9],94 % of control and 92 % of control
C(COCC1CO1)OCC1CO1 (stereo not drawn),T/C,"dose: 6.25 mg/kg/injection, schedule: Q01DX009 (ip), vehicle: saline",115 % of control
same,T/C,"dose: 12.5 mg/kg/injection, schedule: Q01DX009 (ip), vehicle: saline",110 % of control
same,T/C,"dose: 25.0 mg/kg/injection, schedule: Q01DX009 (ip), vehicle: saline",110 % of control and 118 % of control
same,T/C,"dose: 100.0 mg/kg/injection, schedule: Q01DX009 (ip), vehicle: saline",120 % of control
same,T/C,[14],122 % of control
same,T/C,"dose: 200.0 mg/kg/injection, schedule: Q01DX Z (ip), vehicle: saline",121 % of control
same,T/C,[15],91 % of control
same,T/C,"dose: 300.0 mg/kg/injection, schedule: Q01DX Z (ip), vehicle: saline",114 % of control
same,T/C,"dose: 450.0 mg/kg/injection, schedule: Q01DX Z (ip), vehicle: saline",122 % of control
CCCC(CCC)OC(=O)C(O)c1ccccc1 (stereo not drawn),T/C,"dose: 100.0 mg/kg/injection, schedule: Q01DX001 (ip), vehicle: acetone",94 % of control
same,T/C,"dose: 200.0 mg/kg/injection, schedule: Q01DX001 (ip), vehicle: acetone",94 % of control
same,T/C,"dose: 400.0 mg/kg/injection, schedule: Q01DX001 (ip), vehicle: acetone",100 % of control
CCC(C)COC(=O)Nc1cccc(OC(=O)NC)c1 (stereo not drawn),T/C,[16],97 % of control
same,T/C,[17],102 % of control
same,T/C,[18],102 % of control
CC1(C)C2CC=C(CCO)C1C2 (stereo not drawn),T/C,[4],98 % of control
same,T/C,[19],98 % of control
same,T/C,[5],93 % of control
same,T/C,[20],110 % of control
same,T/C,"dose: 400.0 mg/kg/injection, schedule: Q04DX002 (ip), vehicle: saline with Tween-80",93 % of control
c1ccc(-c2cccc[c]2[Hg][c]2ccccc2-c2ccccc2)cc1,T/C,"dose: 100.0 mg/kg/injection, schedule: Q01DX001 (ip), vehicle: carboxymethylcellulose (CMC)",96 % of control
same,T/C,"dose: 200.0 mg/kg/injection, schedule: Q01DX001 (ip), vehicle: carboxymethylcellulose (CMC)",93 % of control
same,T/C,"dose: 400.0 mg/kg/injection, schedule: Q01DX001 (ip), vehicle: carboxymethylcellulose (CMC)",93 % of control
[Co+3].[NH-]CC(=O)[O-].[NH-]CCN(CC[NH-])CC[NH-].[O-][Cl+3]([O-])([O-])O,T/C,"dose: 50.0 mg/kg/injection, schedule: Q01DX001 (ip), vehicle: saline",103 % of control
same,T/C,[4],100 % of control
same,T/C,[5],103 % of control
same,T/C,[6],105 % of control
CC(=O)CC(=O)NCC(CCN(C)C)(c1cccc2ccccc12)C(C)C (stereo not drawn),T/C,"dose: 12.5 mg/kg/injection, schedule: Q04DX003 (ip), vehicle: saline",105 % of control
same,T/C,"dose: 25.0 mg/kg/injection, schedule: Q04DX003 (ip), vehicle: saline",97 % of control
same,T/C,"dose: 50.0 mg/kg/injection, schedule: Q04DX003 (ip), vehicle: saline",99 % of control
O=[N+]([O-])c1ccc(N=C(Cl)c2ccccc2)cc1,T/C,[16],98 % of control
same,T/C,[17],98 % of control
same,T/C,[18],104 % of control
O=c1cc(O)nc2ccccn12,T/C,[9],99 % of control
same,T/C,[10],95 % of control
same,T/C,[11],97 % of control
same,T/C,[12],96 % of control
same,T/C,[21],92 % of control
same,T/C,[13],91 % of control
O=C1C(CCSc2ccccc2)C(=O)N(c2ccccc2)C1c1ccccc1 (stereo not drawn),T/C,[9],93 % of control
same,T/C,[11],94 % of control
same,T/C,[21],95 % of control
Oc1ccccc1C1CC2CCC1C2 (stereo not drawn),T/C,"dose: 50.0 mg/kg/injection, schedule: Q04DX002 (ip), vehicle: saline with Tween-80",106 % of control
same,T/C,[1],107 % of control
same,T/C,[19],103 % of control
same,T/C,[20],100 % of control
NC(=O)NOCc1ccc([N+](=O)[O-])cc1,T/C,[14],98 % of control
same,T/C,[15],101 % of control
same,T/C,"dose: 400.0 mg/kg/injection, schedule: Q04DX003 (ip), vehicle: saline",115 % of control
Cc1ccccc1N=Nc1c(O)n(-c2ccccc2Cl)c(=S)n(-c2ccccc2)c1=O,T/C,"dose: 50.0 mg/kg/injection, schedule: Q01DX001 (ip), vehicle: Klucel (hydroxypropylcellulose) (HPC)",98 % of control
same,T/C,"dose: 100.0 mg/kg/injection, schedule: Q01DX001 (ip), vehicle: Klucel (hydroxypropylcellulose) (HPC)",100 % of control
same,T/C,"dose: 200.0 mg/kg/injection, schedule: Q01DX001 (ip), vehicle: Klucel (hydroxypropylcellulose) (HPC)",96 % of control
COc1ccc(OC(=O)Nc2ccccc2C(F)(F)F)cc1,T/C,[1],98 % of control
same,T/C,[2],107 % of control
same,T/C,[3],102 % of control
COc1cc2cccccc-2cc1=O,T/C,"dose: 50.0 mg/kg/injection, schedule: Q01DX009 (ip), vehicle: other",104 % of control
same,T/C,"dose: 100.0 mg/kg/injection, schedule: Q01DX009 (ip), vehicle: other",89 % of control
same,T/C,[10],103 % of control
same,T/C,"dose: 200.0 mg/kg/injection, schedule: Q01DX009 (ip), vehicle: other",101 % of control
same,T/C,[12],97 % of control
same,T/C,[13],103 % of control
